According to patent US8853219B2, “Compounds and compositions for cognition-enhancement, methods of making, and methods of treating” (NeuroSolis, Inc., priority 2010, dated 2014):

Tests used:
[1] = target: T1, human muscarinic M1 receptors (Homo sapiens, UniProt P11229); assay: Stimulation of inositol phosphate production in A9L cells, human M1 (IPOne TR-FRET); type: cell-based; details: huM1/A9L versus huM3/A9L
T1 construct: host or cells: A9L cells
T1 sequence (P11229 1-460): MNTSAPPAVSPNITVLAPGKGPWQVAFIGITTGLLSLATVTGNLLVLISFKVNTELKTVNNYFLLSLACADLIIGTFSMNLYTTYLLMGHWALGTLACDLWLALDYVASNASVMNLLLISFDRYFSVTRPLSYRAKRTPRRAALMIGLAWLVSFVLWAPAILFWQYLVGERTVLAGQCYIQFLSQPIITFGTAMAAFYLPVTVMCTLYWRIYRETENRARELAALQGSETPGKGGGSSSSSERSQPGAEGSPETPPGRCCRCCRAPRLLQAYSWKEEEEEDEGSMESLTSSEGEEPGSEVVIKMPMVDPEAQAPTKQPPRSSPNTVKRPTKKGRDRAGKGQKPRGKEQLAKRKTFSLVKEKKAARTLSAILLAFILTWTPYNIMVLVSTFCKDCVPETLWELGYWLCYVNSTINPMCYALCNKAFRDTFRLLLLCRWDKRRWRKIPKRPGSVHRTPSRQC

[2] = tested on: pooled male Sprague-Dawley rat liver microsomes; assay: Metabolism by rat liver microsomes; type: in vitro ADME; details: 6 hours incubation
Experimental: (§1) Compounds were incubated with pooled male Sprague-Dawley rat liver microsomes (BD Biosciences, #452501) and an NADP-regenerating system in a phosphate buffer (pH 7.4) for a total of 6 hours. Aliquots were removed every 2 hours, and 1% formic acid was added to halt the reaction. Samples were centrifuged, filtered through 0.2 micron spinfilter and the amount of each compound in the supernatants was quantitated using LC/MS/MS.

[3] = tested on: pooled male human liver microsomes; assay: Metabolism by human liver microsomes; type: in vitro ADME; details: 6 hours incubation
Experimental: as §1, with “human” for “Sprague-Dawley rat”, “#452172)” for “#452501)”

[4] = Blood and brain concentrations (rats) after oral gavage; type: in vivo, rat; details: rat brain, 10 mg/kg po, 1 hr, relative to MCD-386
Experimental: Long-Evans Hooded rats (Charles River: male, 250-350 g) were dosed with solutions of test compounds in PBS by oral gavage. At the desired time after dosing, the animals were anesthetized with isoflurane, and then euthanized by cervical dislocation. Blood was obtained by cardiac puncture, transferred to a 1.5 mL microcentrifuge tube containing 15U Heparin, and the plasma recovered after centrifugation. Brains were dissected, weighed, immediately chilled to 4° C., and homogenized using a PowerGen 125 homogenizer in five volumes of ice-cold 2% formic acid. Proteins were precipitated from plasma and brain homogenate with two and five volumes respectively of ice-cold 2% formic acid and clarified by centrifugation. The supernatant was ultra-filtered by centrifugation through a 3K MWCO spin column (Pall Life Sciences), following the manufacturer's instructions. The concentration of compound in the ultra-filtrate was subjected to reverse-phase liquid chromatography using a 150×2.1 mm Agilent C8 reverse-phase column on a Shimadzu Prominence LC, eluting the compounds with a gradient of 2% to 50% of acetonitrile+0.1% formic acid for compound MI-50,382, or an isocratic flow of 2% acetonitrile+0.1% formic acid for the rest of the compounds listed. The concentration of the compound in the column effluent was measured using an Applied Biosystems API-3200 triple quadrupole mass spectrometer equipped with an electrospray sample injection system. The counts of the characteristic parent and product ions of each test compound were converted to concentration units by comparison with a standard calibration curve.

[5] = Delivery of MCD-386 in rats by iontophoresis patch versus oral gavage: plasma concentration; type: in vivo; details: rat
Experimental: Two patches were made up, consisting (in order from the outer layer to the skin contacting surface, respectively): adhesive tape (Transpore, 27 mm wide, 3M), circular stainless steel electrodes (22 mm dia) with a central hole for a stainless steel machine screw to which the electrode wire was attached, and 2 layers of 3mM CHR filter paper (Cat #3030-861, Whatman International, Ltd).
The mid-dorsal area of a Long Evans Hooded rat (approximate weight, 320 grams), surgically prepared with a jugular vein catheter (Charles River), was shaved and the skin was then cleaned using an Electrode Prep Pad (Professional Disposables, Inc, Cat #B59800). […]
Blood (400 μl) was withdrawn from the catheters in each rat every 30 minutes, transferred to 1.5 ml centrifuge tubes containing heparin (15 units/tube), and the plasma was separated by centrifugation from the cellular components. The plasma samples were maintained at 4 deg C. until analyzed. […]
The ultra-filtrates were subjected to reverse-phase liquid chromatography using a 150×2.1 mm Agilent C8 reverse-phase column on a Shimadzu Prominence LC, eluting the MCD-386 with an isocratic flow of 2% acetonitrile+0.1% formic acid. The concentration of MCD-386 in the column effluent was measured using an Applied Biosystems API-3200 triple quadrupole mass spectrometer equipped with a Turbo V source (electrospray sample injection) system. […]

Metabolism in rat liver microsomes [2] | PAMPA units (PAMPA test) | Metabolism in human liver microsomes [3] | Brain Cmax (10 mg/kg po) 1 hr MCD-386 = 1.00 [4] | Bioavailability by transdermal delivery versus oral administration [5] | Structure (SMILES) | Selectivity for M1 versus M3 receptors [1]
nearly completely metabolized | 12.75 | nearly completely metabolized |  |  | Cc1noc(C2=CCCN(C)C2)n1 [Compound 36, 3-methyl-5-(1-methyl-1,2,5,6-tetrahydropyridin-3-yl)-1,2,4-oxadiazole, reference compound] | some selectivity for M1 versus M3 receptors
 | 0.05 |  | 1.00 | up to three times higher | CCc1noc(C2CN=CNC2)n1 (stereo not shown) [MCD-386, 5-(3-ethyl-1,2,4-oxadiazol-5-yl)-1,4,5,6-tetrahydropyrimidine] | 
